Experimental data reported in US8685372B2, “Peptides and aptamers for targeting of neuron or nerves” (The Regents of the University of California, priority 2009, dated 2014).
“Also recorded” adds a separate entry of the source. Values belong to the substance of their own block, whether it stands above or below them. No end group written: not given here. heptamethinecyanine derivative = not defined here; Cy5 = Cy5 cyanine fluorescent dye label; 5,6FAM = 5(6)-carboxyfluorescein label

Experiments:
[1] = system: sciatic nerves; assay: In vivo nerve labeling with fluorescently labeled peptides (nerve versus adjacent non-nerve tissue); parameters: species or system mice; settings: for Nerve contrast: derivatives of peptide SEQ ID NO: 4; for nerve to muscle contrast: FAM-labeled peptides intravenously, living mice, after wash-out
Method: To test the nerve binding affinity of each of the isolated peptide sequences in vivo, carboxyfluorescein (FAM)-labeled peptides were injected intravenously into living mice. Following a wash-out period, the contrast between nerve and muscle binding of the labeled peptides was evaluated.
Wild-type albino C57BL6 (Jackson Laboratory) or SKH1 (Charles River Laboratories) mice were treated intravenously with 150 nmoles of fluorescently labeled SEQ ID NO:4 via tail vein injection. Following a 2-3 hour wash-out period for SEQ ID NO:25 or 5-6 hours for SEQ ID NO:31, mice were anesthetized with ketamine and midazolam (80 mg/kg intraperitoneally), a skin incision was made over the dorsal surface of the hind, legs and the sciatic nerves exposed bilaterally. […] Nerves and adjacent non-nerve tissue was delineated with Image J and relative fluorescence was measured. Following background subtraction using dark current measurements and measurements of a standard, the ratios of peptide binding to nerve versus adjacent non-nerve tissue were calculated.

[2] = Peptide biodistribution and metabolism (organ fluorescence, LC-MS and MALDI of urine); assay type: in vivo, mice
Method: (§1) To evaluate the biodistribution of the peptide following systemic administration, organs were harvested from mice treated with SEQ ID NO:4 and fluorescence uptake was evaluated. […] To evaluate the metabolism of the peptide as it passed through the renal system, liquid chromatography-mass spectrometry (LC-MS, Agilent) tracing was used to compare urine obtained from mice injected with SEQ ID NO:25 or SEQ ID NO:31 intravenously versus urine from normal mice spiked with the native SEQ ID NO:25 or SEQ ID NO:31. […] Next, matrix-assisted. laser desorption/ionization (MALDI) was used to evaluate the nature of the modification to the peptide as it was metabolized.
as §1, with “NO:25 and” for “NO:25 or”, “ID NO:3” for “ID NO:31”, “ID NO:25.” for “ID NO:25 or SEQ ID NO:31.”, “Next, matrix-assisted” for “Next, matrix-assisted.”

[3] = system: sciatic nerve; assay: Histology: localization of binding in nerves of thy1-YFP transgenic mice; assay type: in vivo
Text: To evaluate the localization of SEQ ID NO:4 binding in nerves, we treated thy1-YFP transgenic mice whose axons are genetically encoded with YFP under a neuron specific promoter (Feng et al, Imaging neuronal subsets in transgenic mice expressing multiple spectral variants of GFP. Neuron, 2000) with SEQ ID NO:31. […] These deeper nerve structures were not easily seen either with brightfield (FIG. 5A, insert) or YFP (FIG. 5B, insert) imaging. To evaluate the localization of SEQ ID NO:4 binding on a cellular level, we imaged cryosections (3-5 μm) of nerves and attached muscles from thy1-YFP animals treated with SEQ ID NO:31.

[4] = system: dissected nerve tissue; assay: In vitro nerve binding: dissected nerve tissue incubated with peptide; parameters: species or system mice; settings: 100 nM peptide, one hour incubation
Method: To test the nerve binding affinity of each of the isolated peptide sequences in vitro, dissected nerve tissue was removed from mice and incubated for one hour with 100 nM of each peptide, including a control peptide made up of amino acids that were contained within the various phages selected and sequenced, but in a mixed-up order and designed without repeating any single amino acid except for glycine (which was added to the C-terminus as a flexible linker).

Substance: acetyl- SHSNTQTLAKAPEHTG-(D-cys)-(5,6FAM)-amide (Ac-SHSNTQTLAKAPEHTG; not fully specified (C-terminus); also: 5,6FAM on C-terminal D-Cys, attachment site not given here)
Nerve contrast [1]: Medium

Substance: acetyl- SHSNTQTLAKAPEHTG-(L-cys)-(indocyanine green derivative) [SEQ ID NO: 51]
Nerve contrast [1]: Low

Substance: acetyl- SHSNTQTLAKAPEHTG(L-cys)(5,6FAM)-amide (Ac-SHSNTQTLAKAPEHTGC(5,6FAM)-NH2; not fully specified) [SEQ ID NO: 46]
Nerve contrast [1]: Medium/High

Substance: acetyl- SHSNTQTLAKAPEHTG-(L-cys)-(Texas Red)-amide (Ac-SHSNTQTLAKAPEHTGC(Texas Red)-NH2) [SEQ ID NO: 50]
Nerve contrast [1]: Medium

labeling of nerves genetically encoded with YFP ([3]; Cy5 fluorescence versus YFP and brightfield): precisely labels nerves
tissue penetration compared to imaging in the visible range ([3]; mouse, in vivo): deeper tissue penetration
Substance: ACETYL-SHSNTQTLAKAPEHTG-(L-cys)-(Cy5)-amide (Ac-SHSNTQTLAKAPEHTGC(Cy5)-NH2; also: Cy5 on C-terminal Cys, attachment site not given here) [SEQ ID NO:31]
native peptide detectable in urine of intravenously injected mice ([2]; LC-MS): none
only fluorescently labeled entity identified in urine ([2]; MALDI): cysteine-Cy5
Nerve contrast [1]: Medium/High
localization of labeling within nerve ([3]; cryosections of nerves): most localized to the epineurium of the nerves with some labeling of the perineurium and endoneurium; also recorded: labeling of epineurium, perineurium and endoneurium

Substance: acetyl- SHSNTQTLAKAPEHTG-(L-cys)-(heptamethinecyanine derivative) (Ac-SHSNTQTLAKAPEHTGC(heptamethinecyanine derivative); not fully specified; reading uncertain) [SEQ ID NO: 52]
Nerve contrast [1]: Low

Substance: Free amine- SHSNTQTLAKAPEHTG-(L-cys)-(5,6FAM)-amide (H-SHSNTQTLAKAPEHTGC(5,6FAM)-NH2; not fully specified) [SEQ ID NO: 47]
Nerve contrast [1]: Medium/High

Substance: KSLSRHDHIHHH (peptide that specifically binds to a neuron, nerve, or component of either) [SEQ ID NO:3]
nerve to muscle contrast [1]: exhibited nerve to muscle contrast, although at a lower level than that of SEQ ID NO:4
uptake/binding to dissected nerve tissue compared to no peptide or control peptide [4]: two-fold increase over control to no difference from control

Substance: AHHNSWKAKHHS (peptide that specifically binds to a neuron, nerve, or component of either) [SEQ ID NO:1]
nerve to muscle contrast [1]: little significant nerve-to muscle contrast
uptake/binding to dissected nerve tissue compared to no peptide or control peptide [4]: two-fold increase over control to no difference from control

Substance: acetyl- SHSNTQTLAKAPEHTG-(L-cys)-(IR800CW) (Ac-SHSNTQTLAKAPEHTGC(IR800CW); not fully specified) [SEQ ID NO: 48]
Nerve contrast [1]: Low

Substance: DFTKTSPLGIH (peptide that specifically binds to a neuron, nerve, or component of either) [SEQ ID NO:5]
nerve to muscle contrast [1]: exhibited nerve to muscle contrast, although at a lower level than that of SEQ ID NO:4
uptake/binding to dissected nerve tissue compared to no peptide or control peptide [4]: two-fold increase over control to no difference from control

Substance: acetyl- SHSNTQTLAKAPEHTG-(L-cys-)-(TAMRA)-amide (Ac-SHSNTQTLAKAPEHTGC(TAMRA)-NH2) [SEQ ID NO: 49]
Nerve contrast [1]: Medium

Substance: acetyl- SHSNTQTLAKAPEHTG-(D-cys)-(cy5)-amide (Ac-SHSNTQTLAKAPEHTG; not fully specified (C-terminus))
Nerve contrast [1]: Medium
